Measured values taken from patent publication US10485772B2, “Compositions for modulating cancer stem cells and uses therefor” (University of Canberra, priority 2014, dated 2019).
“Also recorded” adds a separate entry of the source.

Experiments:
Type in all cases: cell-based, human
[1] = test system: CD44^high/CD24^low CSC-like subpopulation of PMA-stimulated MCF-7 cells (MCF-IM model); assay: FACS analysis of CD44high/CD24low CSC-like subpopulation in MCF-IM model; conditions: for CD44 high CD24 low-CSC-like subpopulation (CSC formation) by FACS: NCD38 5 μM for 17 hr prior to PMA stimulation for 60 hours
Procedure: (§1) Cells from each well/flask were harvested by means of trypsin treatment followed by two washes with PBS. Washed cells then re-suspended in an antibody cocktail consisting anti-CD44-APC, anti-CD24-PE antibodies (details in Table 5) and Hoechst 33258 dye (final dilution of 1:1000) (Invitrogen, Carlsbad, Calif.) in 1% FCS-PBS solution. Cells re-suspended in antibody cocktail were incubated for 20 minutes at 4° C. Cells were next washed twice with PBS and re-suspended in 1% FCS-PBS solution (volume based on cell number) and kept on ice until analyzed by FACS. Forward scatter (FSC) and side scatter parameters were selected with FITC fluorochrome excited by 488 nm argonion laser, PE fluorochrome excited by 488 nm and Hoechst fluorochrome excited by 350 nm helium-cadmium UV laser.
(§2) Flow Cytometry data was produced using either BD FACS LSR Flow Cytometer (Becton Dickinson Biosciences) or BD FACS Aria™ II Flow Cytometer (Becton Dickinson Biosciences) and analyzed using the data acquisition software CellQuest Pro (Becton Dickinson Biosciences) and FlowJo (Tree Star Inc., Ashland, Oreg.) software at the MCRF facility, JCSMR, ANU, Canberra, Australia. Single colour controls were used to set compensation parameters. Isotype controls were used for all corresponding primary antibodies in each experiment.
The FACS gating strategy used in this thesis is adopted and modified from the pioneer breast cancer stem cell publications (Al-Hajj et al., 2003) which sorted cells based on the CD44^high and CD24^low expression. […] To confirm that anti-CD44-APC and anti-CD24-PE antibodies were specific, isotype control antibodies were used. The isotype (negative controls) used for anti-CD24-PE was PE Mouse-Anti-human IgG2aK and for anti-CD44-APC was APC-Mouse-Anti-human IgG2bK. First, all the cells were stained with Hoechst 33258 to monitor cell viability. In addition cells were stained with varying concentrations of either APC or PE isotypes controls.
(§3) The adherent human mammary adenocarcinoma MCF-7 and MDA-MB-231 cells were cultured in low glucose DMEM (Gibco) and both supplemented with 10% FCS, 2 mM L-glutamine and 0.1% PSN antibiotics. Cells were stimulated with 0.65 ng/ml of phorbol 12-myristate 13-acetate (PMA) (Sigma-Aldrich) or 20 ng/ml of TGF-β (R&D systems) for the times indicated. For Bisindolylmaleimide-I (Calbiochem) or PKC-θ peptide inhibitor (Calbiochem) studies, cells were pre-treated with 1 μM or 30 μM of inhibitor respectively for 1 h prior to stimulation in MCF-7 cells. In case of MDA-MB-231, cells were treated with 4 μM or 30 μM Bisindolylmaleimide-I or PKC-θ peptide inhibitor respectively.
(§4) To separate CSC from non-CSC (NCSC), florescence activated cell sorting (FACS) was performed on single-cell suspensions that were stained with anti-CD44-APC (559942, BD Biosciences) and anti-CD24-PE antibodies (555428, BD Biosciences) along with Hoechst 33258 to monitor cell viability. As used throughout this work, CSC are defined by minority CD44^high/CD24^low, whereas NCSC are defined by rest of the cell populations.
The adherent human mammary adenocarcinoma cell lines MCF-7 were cultured in low glucose DMEM (Gibco) and supplemented with 10% FCS, 2 mM L-glutamine, and 0.1% PSN antibiotics. Cells were stimulated with 0.65 ng/ml of phorbol 12-myristate 13-acetate (PMA) (Sigma-Aldrich) for 60 hours. FACS was performed on single-cell suspensions stained with anti-CD44-APC (559942, BD Biosciences) and anti-CD24-PE antibodies (555428, BD Biosciences), along with Hoechst 33258 (561908, BD Biosciences) to monitor cell viability as previously detailed (Zafar et al., Chromatinized PKC-theta directly regulates inducible genes in epithelial to mesenchymal transition and breast cancer stem cells. Molecular and Cellular Biology, 2014, 34:16 2961-2980). […]

[2] = test system: MDA-MB 231 cells; assay: Phase contrast microscopy of EMT/MET in Basal/metastatic model; conditions: NCD38 5 μM
Procedure: (§5) Phase contrast microscopy was utilized for EMT and wound healing assays under 10× or 20× magnification of Olympus Fluorescence 1X71 microscope. Images were captured and analyzed as described above except that wound healing assay pictures were also analyzed by Image J software (Free software in Public domain developed by NIH).
as §3
(§6) phase contrast microscopy was performed where cells were viewed at ×4 magnification (wound healing assay) or ×10 magnification (EMT) using an Olympus fluorescence IX71 microscope (Olympus) and images were captured using DPController software (2002 Olympus Optical Co. LTD) and analyzed using Photoshop CS3 (Adobe Systems Inc.). Scans were taken with a 10 μm scale bar.

[3] = test system: MDA-MB 231 cells; assay: FACS analysis of CD44high/CD24low CSC-like subpopulation in Basal/metastatic model; conditions: NCD38 5 μM
Procedure: as §1, §2, §3, §4

[4] = test system: MCF-7 cells (mammospheres); assay: Mammosphere assay in MCF-IM model; conditions: NCD38 5 μM for 17 hr prior to PMA for 6 days, mammospheres larger than 60 μm counted
Procedure: The following mammosphere culture media components were purchased from StemCell Technologies Inc., BC, Canada: Mammocult Basal medium (Human) (catalogue number-05621), Mammocult Proliferation Supplements (Human) (catalogue number-05622), heparin (catalogue number-07904) and hydrocortisone (catalogue number-[…]). Hydrocortisone powder was freshly dissolved into mammocult basal medium to get 10^−4M solution on the day of experiment. 50 mL of
Mammocult complete media was then prepared by addition of 45 mL Mammocult basal medium, 5 mL mammocult proliferation supplements, 100 μL of the 0.2% heparin stock, 500 μL of 10^−4M stock of hydrocortisone and 50 μL of the PNS. Mammocult complete media was either used on same day or stored for not more than 7 days at 4° C.
MCF-7 cells were grown in a 175 cm^2 cell culture flask and harvested using a cell scraper (Zellschaber, Switzerland) or FACS sorted as specified below. Importantly trypsin treatment was never used for harvesting cells as it interferes with the mammosphere assay. Harvested cells were then re-suspended in 1 mL mammocult complete media and centrifuged at 500×g for 3 minutes at 20° C. The cell pellet was then re-suspended in 1 mL mammocult complete media before counting the cells on the Vi-CELL counter. Cell dilutions were then prepared to stain 40,000 cells/2 mL and 2 mL of cells were seeded in the 6 well-ultra low adherent, flat bottom plates (Costar, Corning Inc, Corning, N.Y., USA). Cells were either stimulated or not treated according to the experimental protocol and incubated at 37° C., under 5% CO2 for 7 days in a Hepa-Filtered Infrared (IR) Incubator (Forma Scientific Inc., Materietta, Ohio). Mammospheres larger than 60 μm were counted per well on day 7 and pictures were taken with an Olympus microscope. All the mammosphere assays were performed in duplicate wells and the entire procedure was repeated at least twice.
Mammosphere culture media components were purchased from StemCell Technologies and mammosphere assays were performed as recommended by the manufacturer's guidelines. Briefly, 40,000 cells/2 ml cell dilutions were then prepared and 2 ml of cells were seeded in the 6 well-ultralow adherent, flat bottom plates (Costar). Mammospheres larger than 60 μm were counted per well on day 7 and pictures were taken.

[5] = test system: MCF-7 cells; assay: EMT assay by phase contrast microscopy in MCF-IM model; conditions: MCF-7 cells; PMA 20 ng/mL for 60 hr, compared with TNF-α, EGF, IL-6, TGF-β
Procedure: EMT assays were performed in 24-well plates (Costar, Corning Inc., Corning, N.Y., USA). For this assay, usually MCF-7 cells were seeded at 4×10^4/well/500 μL media one day before the experiment unless otherwise specified. Cells were stimulated with various EMT stimuli prepared in warm media the following day and monitored for EMT changes under the microscope specified below. The percentage of EMT was generally calculated based on phenotype counting 100 cells per field under the microscope. All the potential EMT stimuli used herein are described in Table 6 and they were prepared and stored as per supplier specification.
as §5
as §3, with “Cells were stimulated with 0.65 ng/ml of phorbol 12-myristate 13-acetate (PMA) (Sigma-Aldrich) or 20 ng/ml of TGF-β (R&D systems) for the times indicated.” left out
as §6

## CC(C)[C@@](C)(O)[C@@H]1CN(c2nc(-c3n[nH]c4ncccc34)c(F)cc2Cl)CCN1 [Compound C27]
[1]; Homo sapiens, MCF7, MCF-IM model, C27 alone at 100 nM
  inhibition at 0.1 µM: ~30%
[1]; Homo sapiens, MCF7, MCF-IM model, C27 alone at 500 nM
  inhibition at 0.5 µM: ~90%

## O=C(N[C@@H](CCNC1CC1c1ccccc1)C(=O)NCc1cccc(Cl)c1)c1ccc(-c2ccccc2)cc1 (some centres unmarked) [NCD-38]
[2]
  EMT / conversion of mesenchymal cells to epithelial cells (MET), phase contrast morphology: conversion of mesenchymal cells in to epithelial cells
[2]; listed as NCD38
  EMT / conversion of mesenchymal cells to epithelial cells (MET), phase contrast morphology: inhibit EMT
[3]
  CD44 high CD24 low-CSC-like subpopulation (CSC formation) by FACS: decrease of CSC formation
[3]; listed as NCD38
  CD44 high CD24 low-CSC-like subpopulation (CSC formation) by FACS: inhibits CD44 high CD24 low-CSC-like subpopulation
[4]
  mammosphere formation: inhibition CSC formation
[4]; listed as NCD38
  mammosphere formation: reduce mammosphere formation
[1]; Homo sapiens, MCF7, MCF-IM model, NCD-38 alone at 2.5 μM
  inhibition at 2.5 µM: ~50%
[1]; Homo sapiens, MCF7, MCF-IM model, NCD-38 alone at 5 μM
  inhibition at 5 µM: ~60%
[1]; MCF-IM model
  CD44 high CD24 low-CSC-like subpopulation (CSC formation) by FACS: inhibition CSC formation
[1]; MCF-IM model, listed as NCD38
  CD44 high CD24 low-CSC-like subpopulation (CSC formation) by FACS: inhibits CD44 high CD24 low-CSC-like subpopulation

## CCCCCCCCCCCCCC(=O)O[C@@H]1[C@@H](C)[C@@]2(O)[C@@H](C=C(CO)C[C@]3(O)C(=O)C(C)=C[C@@H]23)[C@@H]2C(C)(C)[C@]12OC(C)=O [PMA, Phorbol 12-Myristate 13-Acetate]
[5]
  EMT (percentage of the cells undergoing EMT, morphological changes): results in maximal EMT; also recorded: caused highest EMT changes
[1]; MCF-7 cells stimulated with PMA 0.65 ng/mL for 60 hr
  generation of CD44high/CD24low CSC-like cells by FACS: generation of CD44^high/CD24^low-CSC like cells
